Data taken from ChEMBL document CHEMBL6120974, “Hydrazide-Based Class I Selective HDAC Inhibitors Completely Reverse Chemoresistance Synergistically in Platinum-Resistant Solid Cancer Cells” (J Med Chem, 2024).
In brackets after ≈: the same amount, converted by molar mass. Activity calls are given as the source filed them. The calls are words filed in the database; no cut-off is given here.

Columns and labels:
[1] = Lipophilicity, logD of the compound in 1-octanol/PBS buffer at pH 7.4 by HPLC/UV analysis; format: physicochemical; conditions: 1-octanol/PBS buffer, read-out: logD
[2] = Solubility of the compound in PBS buffer at pH 7.4 incubated for 72 hrs by HPLC/UV analysis; format: physicochemical
[3] = system: Cal27CisR; experiment: Induction of apoptosis in cisplatin resistant human Cal27CisR cells assessed as decrease in Bcl-2 expression at 0.316 uM incubated for 24 to 72 hrs by Immunoblotting analysis; format: functional, cell-based; conditions: time 24-72 hrs
[4] = system: Cal27CisR; experiment: Induction of apoptosis in cisplatin resistant human Cal27CisR cells assessed as decrease in p21 expression at 0.316 uM incubated for 24 to 72 hrs by Immunoblotting analysis; format: functional, cell-based; conditions: time 24-72 hrs
[5] = system: Cal27CisR; experiment: Induction of apoptosis in cisplatin resistant human Cal27CisR cells assessed as decrease in BAX expression at 0.316 uM incubated for 24 to 72 hrs by Immunoblotting analysis; format: functional, cell-based; conditions: time 24-72 hrs

logD [1]: 3.76 | solubility at 72 h [2]: 16.8 µg/mL (≈ 33.5 µM)
SMILES: CCCNNC(=O)c1ccc(CN(CC(=O)NCc2ccccc2)C(=O)c2ccc(N(C)C)cc2)cc1
Activity [3]: inactive | Activity [4]: inactive | Activity [5]: inactive
